Here are results for 5 compounds from US10294246B2, “Substituted boronic acids and boronate esters as immunoproteasome inhibitors” (MERCK PATENT GMBH, priority 2014, dated 2019).

pIC50: −log10 of the molar value.

The pIC50 is −log10 of the IC50, conventionally taken in molar units. Lower therefore signals a large IC50.

The target in experiment [1] is LMP7 subunit of the immunoproteasome (Homo sapiens (Human), UniProt P28062). The settings on record: Singh et al., Br. J. Hematology 152(2): 155-163; cited from earlier work.
The target in experiment [2] is human constitutive proteasome (Beta5) (Homo sapiens (Human), UniProt P28074). The experiment is described as follows: Determination of Beta5 activity (fluorescence intensity assay, Suc-LLVY-AMC). It is filed as biochemical. To be noted: purified human constitutive proteasome 1.25 nM, Suc-LLVY-AMC 40 μM. In a few lines: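 Purified constitutive proteasome (1.25 nM) was preincubated with compounds 20 min at 25 °C in 50 mM Tris pH 7.4, 0.03% SDS, 1 mM EDTA, 1% DMSO. Suc-LLVY-AMC (40 μM) was then added for 60 min at 37 °C. AMC fluorescence was read at ex 350/em 450 nm.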

The target of experiment [3] is human immunoproteasome (LMP7) (Homo sapiens (Human), UniProt P28062). The experiment is described as follows: Determination of LMP7 activity (fluorescence intensity assay, Suc-LLVY-AMC). It is filed as biochemical. The settings on record: for Selectivity LMP7 vs Beta5: LMP7 versus Beta5; for pIC50: purified human immunoproteasome 0.25 nM, Suc-LLVY-AMC 40 μM. In a few lines: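 0.25 nM purified human immunoproteasome preincubated 20 min at 25 °C with serially diluted compounds in 50 mM Tris pH 7.4, 0.03% SDS, 1 mM EDTA, 1% DMSO. Reaction started with 40 μM Suc-LLVY-AMC, run 60 min at 37 °C. Fluorescence read at ex 350/em 450 nm.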

As to `CC1=C(C(=O)N[C@H](C)C(=O)N[C@@H](Cc2c[nH]c3ccccc23)C(=O)N[C@@H](Cc2ccccc2)C(=O)[C@@]2(C)CO2)Cc2ccccc21` [PR-924], the “selectivity for the LMP7 subunit of the immunoproteasome” value in experiment [1] was 100 fold.

In the case of `O=C(Cc1cccc(OCCO)c1)N[C@@H](Cc1coc2ccccc12)B(O)O` [Compound No. 41, [(1R)-2-(benzofuran-3-yl)-1-[[2-[3-(2-hydroxyethoxy)phenyl]acetyl]-amino]ethyl]boronic acid], in experiment [2], the negative-log IC50 (pIC50) is 6.30 to 7.30. In experiment [3], the “Selectivity LMP7 vs Beta5” value is “+++++ (Selectivity ≥ 100)” and the pIC50 is greater than 7.30.

In turn, `COCC(=O)Nc1ccc(CC(=O)N[C@@H](Cc2ccc(C)cc2C)B(O)O)cc1` [Compound No. 47, [(1R)-2-(2,4-dimethylphenyl)-1-[[2-[4-[(2-methoxyacetyl)amino]-phenyl]acetyl]amino]ethyl]boronic acid] had a negative-log IC50 (pIC50) in experiment [2] of less than 5.30. For the same compound, in experiment [3], the “Selectivity LMP7 vs Beta5” value is “+++++ (Selectivity ≥ 100)” and the pIC50 is 6.30 to 7.30.

For the compound `COc1cc(CC(=O)N[C@@H](Cc2coc3ccccc23)B(O)O)cc(OC)c1OC` [Compound No. 52, [(1R)-2-(benzofuran-3-yl)-1-[[2-(3,4,5-trimethoxyphenyl)acetyl]amino]-ethyl]boronic acid], the negative-log IC50 (pIC50) in experiment [2] was 6.30 to 7.30; in experiment [3], greater than 7.30. Further, the “Selectivity LMP7 vs Beta5” value in experiment [3] is on record as “++ (10 ≤ Selectivity < 50)”.

`CO[C@H](C(=O)N[C@@H](Cc1coc2ccccc12)B(O)O)c1ccccc1` [Compound No. 33, [(1R)-2-(benzofuran-3-yl)-1-[[(2S)-2-methoxy-2-phenyl-acetyl]amino]-ethyl]boronic acid] showed a negative-log IC50 (pIC50) in experiment [2] of 5.30 to 6.30. In experiment [3], the “Selectivity LMP7 vs Beta5” value was “+++++ (Selectivity ≥ 100)”.
